# Laboratory results from patent US11452717B2, “Small molecule activators of nicotinamide phosphoribosyltransferase (NAMPT) and uses thereof” (Sanford Burnham Prebys Medical Discovery Institute, priority 2017, dated 2022).
# Target: NAMPT enzyme (Homo sapiens (Human), UniProt P43490)
# Assay: Enzyme Assay and NMN Detection (NAMPT reaction, fluorescence detection of NMN)
# Assay type: biochemical
# Conditions: Table B-1; NAMPT activation, NMN formation
# Method in brief: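 Reaction in 50 mM HEPES pH 7.5, 5 mM MgCl2, 0.1% Prionex, 0.005% Tween 20, 1 mM TCEP at room temperature, with 16 nM NAMPT, 120 uM ATP, 5 uM nicotinamide, 6.25 uM PRPP, 0.04 U/ml pyrophosphatase for 2 h. Stopped with acetophenone/KOH then formic acid; NMN quantified by fluorescence (ex380/em460) against calibration curve.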
# Sequence of NAMPT enzyme (P43490 whole entry, species assumed): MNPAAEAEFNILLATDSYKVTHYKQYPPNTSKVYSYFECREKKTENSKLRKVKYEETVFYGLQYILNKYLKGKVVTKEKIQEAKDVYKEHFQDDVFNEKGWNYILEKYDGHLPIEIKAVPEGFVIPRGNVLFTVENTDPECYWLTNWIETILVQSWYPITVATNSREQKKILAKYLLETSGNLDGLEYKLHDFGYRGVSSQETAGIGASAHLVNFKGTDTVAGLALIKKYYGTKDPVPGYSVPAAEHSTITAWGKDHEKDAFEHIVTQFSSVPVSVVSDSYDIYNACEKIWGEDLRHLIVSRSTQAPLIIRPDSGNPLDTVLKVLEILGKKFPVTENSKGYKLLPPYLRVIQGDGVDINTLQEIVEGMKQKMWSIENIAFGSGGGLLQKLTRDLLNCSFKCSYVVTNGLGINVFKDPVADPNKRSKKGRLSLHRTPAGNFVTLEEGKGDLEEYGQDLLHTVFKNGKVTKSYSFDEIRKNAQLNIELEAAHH
row,EC50 [nM],Structure (SMILES)
1,100 to 2000,O=C(NCc1cn[nH]c1)Nc1ccc(S(=O)(=O)N2CC3CCC(C2)O3)cc1 [1-[4-(8-Oxa-3-aza-bicyclo[3.2.1]octane-3-sulfonyl)-phenyl]-3-(1H-pyrazol-4-ylmethyl)-urea]

# Same assay, conditions: Table B-2; NAMPT activation, NMN formation
row,EC50 [nM],Structure (SMILES)
1,< 100,"O=C(NCc1ccncc1)Nc1ccc(S(=O)(=O)N2CCc3cccc(Cl)c3C2)cc1 [1-[4-(8-Chloro-3,4-dihydro-1H-isoquinoline-2-sulfonyl)-phenyl]-3-pyridin-4-ylmethyl-urea]"
2,< 100,"O=C(NCc1ccncc1)Nc1ccc(S(=O)(=O)N2CCc3cccc(F)c3C2)cc1 [1-[4-(8-Fluoro-3,4-dihydro-1H-isoquinoline-2-sulfonyl)-phenyl]-3-pyridin-4-ylmethyl-urea]"
3,< 100,"Cc1cccc2c1CN(S(=O)(=O)c1ccc(NC(=O)NCc3ccncc3)cc1)CC2 [1-[4-(8-Methyl-3,4-dihydro-1H-isoquinoline-2-sulfonyl)-phenyl]-3-pyridin-4-ylmethyl-urea]"
4,100 to 2000,O=C(NCc1ccncc1)Nc1ccc(S(=O)(=O)N2CC3CCC(C2)O3)cc1 [1-[4-(8-Oxa-3-aza-bicyclo[3.2.1]octane-3-sulfonyl)-phenyl]-3-pyridin-4-ylmethyl-urea]
5,100 to 2000,O=C(NCc1ccncc1)Nc1ccc(S(=O)(=O)N2CCOCC2)cc1 [1-[4-(Morpholine-4-sulfonyl)-phenyl]-3-pyridin-4-ylmethyl-urea]
6,5000 to 20000,O=C(NCc1ccncc1)Nc1ccc(S(=O)(=O)N2CCNCC2)cc1 [1-[4-(Piperazine-1-sulfonyl)-phenyl}-3-pyridin-4-ylmethyl-urea]
7,100 to 2000,O=C(NCc1ccncc1)Nc1ccc(S(=O)(=O)N2CCCCC2)cc1 [1-[4-(Piperidine-1-sulfonyl)-phenyl]-3-pyridin-4-ylmethyl-urea]

# Same assay, conditions: Table B-3; NAMPT activation, NMN formation
row,EC50 [nM],Structure (SMILES)
1,> 20000,O=C(NCc1ccccn1)Nc1ccc(S(=O)(=O)N2CC3CCC(C2)O3)cc1 [1-[4-(8-Oxa-3-aza-bicyclo[3.2.1]octane-3-sulfonyl)-phenyl]-3-pyridin-2-ylmethyl-urea]

# Same assay, conditions: Table B-4; NAMPT activation, NMN formation
row,EC50 [nM],Structure (SMILES)
1,5000 to 20000,COc1ccc(-c2ccccc2S(=O)(=O)c2ccc(NC(=O)NCc3cn[nH]c3)cc2)cc1 [1-[4-(4′-Methoxy-biphenyl-2-sulfonyl)-phenyl]-3-(1H-pyrazol-4-ylmethyl)-urea]
2,100 to 2000,Cn1nc(-c2ccc(NC(=O)NCc3cn[nH]c3)cc2)c2cc(F)ccc21 [1-[4-(5-Fluoro-1-methyl-1H-indazol-3-yl)-phenyl]-3-(1H-pyrazol-4-ylmethyl)-urea]
3,100 to 2000,Cc1ccc(S(=O)(=O)c2ccc(NC(=O)NCc3cn[nH]c3)cc2)cn1 [1-[4-(6-Methyl-pyridine-3-sulfonyl)-phenyl]-3-(1H-pyrazol-4-ylmethyl)-urea]

# Continued, compound first:
row,Structure (SMILES),EC50 [nM]
1,Cc1ccc(-c2ccccc2S(=O)(=O)c2ccc(NC(=O)NCc3cn[nH]c3)cc2)cc1 [1-[4-(4′-Methyl-biphenyl-2-sulfonyl)-phenyl]-3-(1H-pyrazol-4-ylmethyl)-urea],5000 to 20000
2,O=C(NCc1cn[nH]c1)Nc1ccc(S(=O)(=O)c2ccc(Cl)cn2)cc1 [1-[4-(5-Chloro-pyridine-2-sulfonyl)-phenyl]-3-(1H-pyrazol-4-ylmethyl)-urea],100 to 2000
3,COc1ccc2c(c1)c(-c1ccc(NC(=O)NCc3cn[nH]c3)cc1)nn2C [1-[4-(5-Methoxy-1-methyl-1H-indazol-3-yl)-phenyl]-3-(1H-pyrazol-4-ylmethyl)-urea],100 to 2000
4,Cc1ccc(S(=O)(=O)c2ccc(NC(=O)NCc3cn[nH]c3)cc2)nc1 [1-[4-(5-Methyl-pyridine-2-sulfonyl)-phenyl]-3-(1H-pyrazol-4-ylmethyl)-urea],100 to 2000
5,O=C(NCc1cn[nH]c1)Nc1ccc(S(=O)(=O)c2cnccn2)cc1 [1-[4-(Pyrazine-2-sulfonyl)-phenyl]-3-(1H-pyrazol-4-ylmethyl)-urea],100 to 2000

# Same assay, conditions: Table B-5; NAMPT activation, NMN formation
row,EC50 [nM],Structure (SMILES)
1,2000 to 5000,O=C(NCc1cnco1)Nc1ccc(S(=O)(=O)c2ccc(Cl)cn2)cc1 [1-[4-(5-Chloro-pyridine-2-sulfonyl)-phenyl]-3-oxazol-5-ylmethyl-urea]
2,> 20000,COc1ccc2c(c1)c(-c1ccc(NC(=O)NCc3cnco3)cc1)nn2C [1-[4-(5-Methoxy-1-methyl-1H-indazol-3-yl)-phenyl]-3-oxazol-5-ylmethyl-urea]
3,100 to 2000,O=C(NCc1cnco1)Nc1ccc(S(=O)(=O)c2ccc(O)nc2)cc1 [1-[4-(6-Hydroxy-pyridine-3-sulfonyl)-phenyl]-3-oxazol-5-ylmethyl-urea]

# Continued, compound first:
row,Structure (SMILES),EC50 [nM]
1,Cn1nc(-c2ccc(NC(=O)NCc3cnco3)cc2)c2cc(F)ccc21 [1-[4-(5-Fluoro-1-methyl-1H-indazol-3-yl)-phenyl]-3-oxazol-5-ylmethyl-urea],2000 to 5000
2,O=C(NCc1cnco1)Nc1ccc(S(=O)(=O)c2ccc(Cl)nc2)cc1 [1-[4-(6-Chloro-pyridine-3-sulfonyl)-phenyl]-3-oxazol-5-ylmethyl-urea],2000 to 5000
3,COc1ccc(S(=O)(=O)c2ccc(NC(=O)NCc3cnco3)cc2)cn1 [1-[4-(6-Methoxy-pyridine-3-sulfonyl)-phenyl]-3-oxazol-5-ylmethyl-urea],100 to 2000
4,Cc1ccc(S(=O)(=O)c2ccc(NC(=O)NCc3cnco3)cc2)cn1 [1-[4-(6-Methyl-pyridine-3-sulfonyl)-phenyl]-3-oxazol-5-ylmethyl-urea],100 to 2000

# Same assay, conditions: Table B-6; NAMPT activation, NMN formation
row,EC50 [nM],Structure (SMILES)
1,5000 to 20000,COc1ccc(-c2ccccc2S(=O)(=O)c2ccc(NC(=O)NCc3ccncc3)cc2)cc1 [1-[4-(4′-Methoxy-biphenyl-2-sulfonyl)-phenyl]-3-pyridin-4-ylmethyl-urea]
2,100 to 2000,Cn1nc(-c2ccc(NC(=O)NCc3ccncc3)cc2)c2cc(F)ccc21 [1-[4-(5-Fluoro-1-methyl-1H-indazol-3-yl)-phenyl]-3-pyridin-4-ylmethyl-urea]
3,100 to 2000,O=C(NCc1ccncc1)Nc1ccc(S(=O)(=O)c2ccc(Cl)nc2)cc1 [1-[4-(6-Chloro-pyridine-3-sulfonyl)-phenyl]-3-pyridin-4-ylmethyl-urea]
4,100 to 2000,O=C(NCc1ccncc1)Nc1ccc(S(=O)(=O)c2ccc(O)nc2)cc1 [1-[4-(6-Hydroxy-pyridine-3-sulfonyl)-phenyl]-3-pyridin-4-ylmethyl-urea]

# More lines, now with the values behind:
row,Structure (SMILES),EC50 [nM]
1,O=C(NCc1ccncc1)Nc1ccc(S(=O)(=O)c2ccccc2-c2ccc(F)cc2)cc1 [1-[4-(4′-Fluoro-biphenyl-2-sulfonyl)-phenyl]-3-pyridin-4-ylmethyl-urea],100 to 2000
2,Cc1ccc(-c2ccccc2S(=O)(=O)c2ccc(NC(=O)NCc3ccncc3)cc2)cc1 [1-[4-(4′-Methyl-biphenyl-2-sulfonyl)-phenyl]-3-pyridin-4-ylmethyl-urea],2000 to 5000
3,O=C(NCc1ccncc1)Nc1ccc(S(=O)(=O)c2ccc(Cl)cn2)cc1 [1-[4-(5-Chloro-pyridine-2-sulfonyl)-phenyl]-3-pyridin-4-ylmethyl-urea],100 to 2000
4,COc1ccc2c(c1)c(-c1ccc(NC(=O)NCc3ccncc3)cc1)nn2C [1-[4-(5-Methoxy-1-methyl-1H-indazol-3-yl)-phenyl]-3-pyridin-4-ylmethyl-urea],100 to 2000
5,COc1ccc(S(=O)(=O)c2ccc(NC(=O)NCc3ccncc3)cc2)cn1 [1-[4-(6-Methoxy-pyridine-3-sulfonyl)-phenyl]-3-pyridin-4-ylmethyl-urea],100 to 2000
6,Cc1ccc(S(=O)(=O)c2ccc(NC(=O)NCc3ccncc3)cc2)cn1 [1-[4-(6-Methyl-pyridine-3-sulfonyl)-phenyl]-3-pyridin-4-ylmethyl-urea],100 to 2000
7,O=C(NCc1ccncc1)Nc1ccc(Nc2nc3ccccc3s2)cc1 [1-[4-(Benzothiazol-2-ylamino)-phenyl]-3-pyridin-4-ylmethyl-urea],5000 to 20000
